Entries after “also recorded” stand apart in the source; their conditions may differ. No end group written: not given here.
Key:
[1] = system: M. luteus A270; assay: Liquid growth inhibition assay, MIC; type: cell-based, Micrococcus luteus; conditions: 37° C., 18 h
Experimental: (§1) Initially, the antimicrobial activity was determined by liquid growth inhibition assays, as previously described by Pedron et al.^62. Briefly, Peptone Broth and Potato Dextrose Broth (Invitrogen) were used for antibacterial and antifungal assays, respectively. Two-fold serial dilutions of peptides (0.09-50 μmol L^−1) and microorganisms (Serratia marcescens ATCC 4112, Enterobacter cloacae β-12, Micrococcus luteus A270, Bacillus megaterium ATCC 10778, Bacillus subtilis ATCC 6633, Candida albicans MDM8, and Candida tropicalis IOC 4560) were incubated at 37° C. for 18 h (for bacteria) or 24 h (for fungi), and microbial growth was assessed by absorbance measurements at 595 nm. Experiments were performed in three biological repeats.

[2] = system: S. epidermidis ATCC 12228; assay: Liquid growth inhibition assay, MIC; type: cell-based; conditions: 37° C., 18 h
[3] = system: B. megaterium ATCC 10778; assay: Liquid growth inhibition assay, MIC; type: cell-based, Bacillus megaterium; conditions: 37° C., 18 h
Experimental: as §1

[4] = system: S. marcescens ATCC 4112; assay: Liquid growth inhibition assay, MIC; type: cell-based, Serratia marcescens; conditions: 37° C., 18 h
Experimental: as §1

[5] = system: E. cloacae β-12; assay: Liquid growth inhibition assay, MIC; type: cell-based, Enterobacter cloacae; conditions: 37° C., 18 h
Experimental: as §1

[6] = system: C. albicans MDM8; assay: Liquid growth inhibition assay, MIC (antifungal); type: cell-based, Candida albicans; conditions: 37° C., 24 h
Experimental: as §1

[7] = system: C. tropicalis IOC 4560; assay: Liquid growth inhibition assay, MIC (antifungal); type: cell-based, Candida tropicalis; conditions: 37° C., 24 h
Experimental: as §1

[8] = system: human erythrocytes; assay: Hemolytic activity assay; type: cell-based; conditions: for hemolytic activity: 0.1 to 100 μmol L^−1; for MHC / Hemolytic activity, concentration of peptide needed to kill 10% of red blood cells: human erythrocytes, 1 h; for MHC: room temperature, concentration with approximately 0% of hemolytic activity
Experimental: Method. Assays against freshly collected human erythrocytes were performed following protocols described by Pedron et al. 62. Briefly, peptide aliquots at concentrations ranging from 0.1 to 100 μmol L−1 were incubated with a suspension of erythrocytes at room temperature for 1 h. The samples were then centrifuged, and the absorbance of the supernatant was measured at 405 nm. The MHC (maximal non-hemolytic concentration) was determined as the maximal concentration at which 100% of the erythrocytes were viable. The surfactant SDS and PBS buffer were used as positive88, 89 and negative controls, respectively. Sodium heparin was used as an anticoagulant when collecting human blood. Three biological repeats were performed.

[9] = Resistance to degradation in fetal bovine serum; type: in vitro ADME; conditions: for remaining at 0.5 h: read-out: remaining peptide, 30 min; for remaining at 1 h: read-out: remaining peptide, 1 h; for remaining at 2 h: read-out: remaining peptide, 2 h
Experimental: The resistance to proteolytic degradation of the hybrid peptides was assessed by exposing them for 6 h to serum peptidases in a fetal bovine serum solution^68, 69 (FIG. 5a and Table S4). The peptide degradation kinetics were calculated by integrating the peak area of the peak in relation to the peptide at the beginning of the experiment (time=0) and comparing it to the integrated peak area relative to the peptides after exposure to the enzymes at time points: 0.5, 1, 2, 4, and 6 h (FIG. 5a and Table S4). […] However, AV was resistant to degradation against proteases, with almost 40% peptide content remaining after 4 h of exposure (FIG. 5a and Table S4). […] VP was almost entirely degraded after 30 min (22% of peptide remaining). […] D-amino acid substitutions have been used as alternatives to prevent the degradation of AMPs. For example, Qiu et. al. described a protonectin analog with a D-Lys residue in position 10 as an alternative to protonectin; this analog is not degraded and has higher antimicrobial activity against bacteria and fungi than the original peptide.
Methods. Stability assays were performed following the protocol described by Torres et al.^71. Briefly, a peptide solution was added to GIBCO fetal bovine serum diluted to 25% in water and kept at 37° C. The degradation kinetics were monitored by liquid chromatography and the percentage of peptide remaining was calculated by integrating the peptide peak area. The experiments were performed as three independent replicates, and aliquots were taken at 0, 0.5, 1, 2, 4, and 6 h.

[10] = system: bacterial strains; assay: Antimicrobial activity over the panel of strains; type: cell-based; conditions: range over strains tested
Experimental: as §1
(§2) Method. The minimal inhibitory concentration (MIC) against the ESKAPE pathogens was determined using the broth microdilution method^81, 82 in Luria-Bertani (LB) medium. The MIC value was defined as the lowest concentration of peptide at which no microbial growth was observed. A. baumannii ATCC19606, E. coli ATCC11775, E. coli AIC221, E. coli AIC222, K. pneumoniae ATCC13883, S. aureus ATCC12600 P. aeruginosa PAO1, and P. aeruginosa PA14 were incubated on agar plates, and after 24 h, three isolated colonies were inoculated to 5 mL of Luria-Bertani (LB) broth and maintained at 37° C. overnight with shaking. Peptides were then added to 96-well polystyrene microtiter plates at concentrations ranging from 0 to 128 μmol L^−1, and 5×10^5 CFU mL^−1 of each bacterium was inoculated in each well. The plates were incubated at 37° C. for 24 h. Bacterial growth was measured using a microplate reader at 610 nm. Three independent replicates were performed.

[11] = system: A. baumannii ATCC19606; assay: Broth microdilution MIC, ESKAPE pathogens; type: cell-based; conditions: LB, 37° C., 24 h
Experimental: as §2

[12] = system: E. coli AIC221; assay: Broth microdilution MIC, ESKAPE pathogens; type: cell-based; conditions: LB, 37° C., 24 h
Experimental: as §2

[13] = system: E. coli AIC222; assay: Broth microdilution MIC, ESKAPE pathogens; type: cell-based; conditions: LB, 37° C., 24 h
Experimental: as §2

[14] = system: E. coli ATCC11775; assay: Broth microdilution MIC, ESKAPE pathogens; type: cell-based; conditions: LB, 37° C., 24 h
Experimental: as §2

[15] = system: K. pneumoniae ATCC13883; assay: Broth microdilution MIC, ESKAPE pathogens; type: cell-based; conditions: LB, 37° C., 24 h
Experimental: as §2

[16] = system: P. aeruginosa PA14; assay: Broth microdilution MIC, ESKAPE pathogens; type: cell-based; conditions: LB, 37° C., 24 h
Experimental: as §2

[17] = system: P. aeruginosa PAO1; assay: Broth microdilution MIC, ESKAPE pathogens; type: cell-based; conditions: LB, 37° C., 24 h
Experimental: as §2

[18] = system: S. aureus ATCC12600; assay: Broth microdilution MIC, ESKAPE pathogens; type: cell-based; conditions: LB, 37° C., 24 h
Experimental: as §2

[19] = system: MCF-7 human breast cancer cells; assay: Anticancer activity, MTT assay; type: cell-based; conditions: MTT
Experimental: The anticancer activity assays were performed using MCF-10A human breast epithelial cells and MCF-7 mammary cancer cells as previously described by Pedron et al. 86. Briefly, the day before treatment, the cells were incubated at 37° C. and 5% CO2 for 24 h. The cells were treated with peptides ranging from 12.5 to 100 μmol L^−1 (MCF10-A cells) and 0.8 to 100 μmol L^−1 (MCF-7 cells) for 4 h and 24 h at 37° C., and cell viability was measured using 3-(4,5-Dimethylthiazol-2-yl)-2,5-diphenyltetrazolium bromide (MTT) assays 87. Three independent replicates were performed in each case.

[20] = bovine, fetal bovine serum, 25% in water, fetal bovine serum 25% in water, 37° C., 30 min
[21] = bovine, fetal bovine serum, 25% in water, fetal bovine serum 25% in water, 37° C.

Substance	MIC M. luteus A270 [1] [µM]	MIC S. epidermidis ATCC 12228 [2] [µM]	MIC B. megaterium ATCC 10778 [3] [µM]	MIC S. marcescens ATCC 4112 [4] [µM]	MIC E. cloacae β-12 [5] [µM]	MIC C. albicans MDM8 [6] [µM]	MIC C. tropicalis IOC 4560 [7] [µM]	hemolytic activity [8]	MHC [8] [µmol/L]	remaining at 0.5 h [9, 20] [%]	resistance to degradation ([9]; fetal bovine serum)	Hemolytic activity, concentration of peptide needed to kill 10% of red blood cells [8] [µmol/L]	MIC A. baumannii ATCC19606 [11] [µM]	MIC E. coli AIC221 [12] [µM]	MIC E. coli AIC222 [13] [µM]	MIC E. coli ATCC11775 [14] [µM]	MIC K. pneumoniae ATCC13883 [15] [µM]	MIC P. aeruginosa PA14 [16] [µM]	MIC P. aeruginosa PAO1 [17] [µM]	MIC S. aureus ATCC12600 [18] [µM]	also measured
FLGSLWRKAGTVF-NH2 [VD]	25	>50	6.3	12.5	>50	25	6.3	minimal hemolytic activity; also recorded: no hemolytic activity was detected	>100	~10	the greatest resistance to proteolytic degradation										remaining at 6 h ([9]; bovine, fetal bovine serum, 25% in water, fetal bovine serum 25% in water, 37° C., 6 h, read-out: remaining peptide, 6 h): ~50%; MIC range of the peptide over the strains [10]: 6.3 to 25 µM
FLGTLWGGAKGVF-NH2 [VP]	>50	>50	>50	>50	>50	>50	>50	minimal hemolytic activity	>100	22		100	128	128	128	128	128	128	128	128	remaining at 1 h [9, 21]: < 20%; remaining at 2 h [9, 21]: < 10%; remaining peptide, 30 min ([9]; fetal bovine serum 25% in water, 37° C., 30 min): ~20%
H-GLLKRIKTLL-NH2 [Anoplin, reference compound]	1.6	6.3	0.8	6.3	3.1	1.6	1.6		50	~20		50									remaining at 1 h [9, 21]: ~20%; remaining at 2 h [9, 21]: ~10%
ILGTILGLLKGL-NH2 [Protonectin, reference compound]	3.1	25	3.1	6.3	25	12.5	12.5		12.5		quickly degraded	12.5	16	16	8	16	64	128	128	8	MCF-7 4 h LD50 ([19]; MCF-7, 4 h): 25 µmol/L; MCF-7 24 h LD50 ([19]; MCF-7, 24 h): 25 µmol/L
